Laboratory results taken from US4593104A, “2-halo-N-(azole-1-yl-methyl)-substituted acetanilides” (BASF Aktiengesellschaft, priority 1976, dated 1986).

Key:
[1] = tested on: Sorgh. bicol.; test: preemergence treatment in the greenhouse, % damage; format: in vivo, Sorghum bicolor; conditions: 2.0 kg/ha
Text: (§1) The vessels employed were plastic flowerpots having a volume of 300 cm^3; the substrate was a sandy loam containing about 1.5% humus. The seeds of the test plants (see Table 1) were sown shallow, and separated according to species. In the case of Cyperus esculentus, pregerminated tubers were planted. In the preemergence treatment, the active ingredients were then immediately applied to the surface of the soil. They were suspended or emulsified in water as the vehicle, and sprayed through atomizing nozzles. After the agents had been applied, the vessels were lightly sprinkler-irrigated to set germination and growth going, and to activate the chemical agents. The vessels were then covered with transparent plastic hoods until the plants had taken root. This cover ensured uniform germination of the test plants (to the extent that this was not impaired by the chemicals), and prevented readily volatile substances from evaporating.
(§2) For postemergence treatment, the plants were first grown to a height of from 3 to 10 cm, depending on their habit, before treated. Hoods were not placed on the pots. The experiments were set up in the greenhouse, hotter areas (25° to 40° C.) being preferred for heat-loving species, and 15° to 30° C. for plants from moderate climates. The experiments were carried out for from 4 to 6 weeks. During this period the plants were tended and their reaction to the various treatments was assessed. The following tables contain the substances investigated, the application rates in kg/ha of active ingredient, and the test plant species. Assessments were made on a 0 to 100 scale, 0 denoting no damage or normal emergence, and 100 denoting no emergence or complete destruction of at least the visible plant parts.

[2] = tested on: Alopec. myosur.; test: preemergence treatment in the greenhouse, % damage; format: in vivo
Text: as §1, §2

[3] = tested on: Zea mays; test: preemergence treatment in the greenhouse, % damage; format: in vivo; conditions: 2.0 kg/ha
Text: as §1, §2

[4] = tested on: Amar. retro.; test: preemergence treatment in the greenhouse, % damage; format: in vivo
Text: as §1, §2

[5] = tested on: Setaria spp.; test: preemergence treatment in the greenhouse, % damage; format: in vivo
Text: as §1, §2

[6] = tested on: Beta vulg.; test: preemergence treatment in the greenhouse, % damage; format: in vivo, Beta vulgaris; conditions: 2.0 kg/ha
Text: as §1, §2

[7] = tested on: Glyc. max; test: preemergence treatment in the greenhouse, % damage; format: in vivo, Glycine max
Text: as §1, §2

[8] = tested on: Alopec. myosur.; test: preemergence application in the open, % damage; format: in vivo
Procedure: (§3) The experiments were carried out on small plots. The soil was a sandy loam having a pH of from 5 to 6 and containing from 1 to 1.5% humus. The treatment was preemergence, the active ingredients being applied immediately or at the latest 3 days after sowing. The crop plants were sown in rows. The weed flora was made up of the most widely varying species and was natural; the weed flora depended on the time of the year and in part on the crop (e.g., spring-germinating, summer-germinating). The substances were emulsified or suspended in water as the vehicle, and applied by means of a motor-driven plot spray mounted on a hitch. When no rain fell, the plots were watered to ensure germination and growth of the crop plants and weeds. All the experiments were run for several weeks. Over this period, assessments were made at certain intervals on the 0 to 100 scale.

[9] = tested on: Lamium spp.; test: preemergence application in the open, % damage; format: in vivo
Procedure: as §3

[10] = tested on: Anth./Matric.; test: preemergence application in the open, % damage; format: in vivo
Procedure: as §3

[11] = tested on: Brassica napus; test: preemergence application in the open, % damage; format: in vivo
Procedure: as §3

[12] = tested on: Stellaria media; test: preemergence application in the open, % damage; format: in vivo
Procedure: as §3

[13] = tested on: Gossyp. hirs.; test: preemergence treatment in the greenhouse, % damage; format: in vivo, Gosspyium hirsutum
Text: as §1, §2

[14] = tested on: Sorgh. halep.; test: preemergence treatment in the greenhouse, % damage; format: in vivo
Text: as §1, §2

[15] = tested on: Euph. gen.; test: preemergence treatment in the greenhouse, % damage; format: in vivo
Text: as §1, §2

[16] = tested on: Stell. med.; test: preemergence treatment in the greenhouse, % damage; format: in vivo
Text: as §1, §2

[17] = tested on: Echin. c.g.; test: preemergence treatment in the greenhouse, % damage; format: in vivo
Text: as §1, §2

[18] = tested on: Matric. spp.; test: preemergence treatment in the greenhouse, % damage; format: in vivo
Text: as §1, §2

[19] = tested on: Cyp. diff.; test: preemergence treatment in the greenhouse, % damage; format: in vivo
Text: as §1, §2

[20] = tested on: Cyper. escul.; test: preemergence treatment in the greenhouse, % damage; format: in vivo, Cyperus esculentus
Text: as §1, §2

[21] = tested on: Solanum nigrum; test: preemergence treatment in the greenhouse, % damage; format: in vivo
Text: as §1, §2

[22] = tested on: Cyper. escul.; test: postemergence application in the greenhouse, % damage; format: in vivo, Cyperus esculentus
Text: as §1, §2

[23] = tested on: Alopec. myosur.; test: as above; format: in vivo
Text: as §1, §2

[24] = tested on: Chrys. seget.; test: as above; format: in vivo
Text: as §1, §2

[25] = tested on: Setaria spp.; test: as above; format: in vivo
Text: as §1, §2

[26] = tested on: Avena fat.; test: as above; format: in vivo
Text: as §1, §2

[27] = tested on: Stell. med.; test: as above; format: in vivo
Text: as §1, §2

[28] = tested on: Matric. spp.; test: as above; format: in vivo
Text: as §1, §2

CCc1cccc(C)c1N(Cn1nc(C)c(Cl)c1C)C(=O)CCl [Compound 107]
% damage [1]: 85% | % damage ([2]; 2.0 kg/ha): 95% | % damage [3]: 0% | % damage ([4]; 2.0 kg/ha): 95% | % damage ([5]; 2.0 kg/ha): 95% | % damage [6]: 0% | % damage ([7]; 2.0 kg/ha): 0%

CCc1cccc(C)c1N(Cn1cncn1)C(=O)CCl [Compound 129]
% damage ([8]; 2.0 kg/ha): 35% | % damage ([8]; 4.0 kg/ha): 68% | % damage ([9]; 2.0 kg/ha): 45% | % damage ([9]; 4.0 kg/ha): 90% | % damage ([10]; one value printed for two rates (2.0 4.0 kg/ha)): 35% | % damage ([11]; 2.0 kg/ha): 7.5% | % damage ([11]; 4.0 kg/ha): 22.5% | % damage ([12]; 2.0 kg/ha): 24% | % damage ([12]; 4.0 kg/ha): 49%

Cc1ccc(C)c(N(Cn2cncn2)C(=O)CCl)c1C [Compound 136]
% damage ([13]; 0.5 kg/ha): 10% | % damage ([13]; 1.0 kg/ha): 10% | % damage ([2]; 0.5 kg/ha): 50% | % damage ([2]; 1.0 kg/ha): 90% | % damage ([4]; 0.5 kg/ha): 70% | % damage ([4]; 1.0 kg/ha): 70% | % damage ([5]; 0.5 kg/ha): 90% | % damage ([5]; 1.0 kg/ha): 100% | % damage ([14]; 0.5 kg/ha): 80% | % damage ([14]; 1.0 kg/ha): 80% | % damage ([15]; 0.5 kg/ha): 45% | % damage ([15]; 1.0 kg/ha): 65% | % damage ([16]; 0.5 kg/ha): 30% | % damage ([16]; 1.0 kg/ha): 80% | % damage ([17]; 0.5 kg/ha): 95% | % damage ([17]; 1.0 kg/ha): 95% | % damage ([18]; 0.5 kg/ha): 50% | % damage ([18]; 1.0 kg/ha): 90% | % damage ([19]; 0.5 kg/ha): 90% | % damage ([19]; 1.0 kg/ha): 90%

CCc1cccc(C)c1N(Cn1cncn1)C(=O)CCl [Compound 189]
% damage ([20]; 0.5 kg/ha): 50% | % damage ([20]; 1.0 kg/ha): 60% | % damage ([20]; 2.0 kg/ha): 80% | % damage ([13]; 0.5 kg/ha): 0% | % damage ([13]; 1.0 kg/ha): 20% | % damage ([13]; 2.0 kg/ha): 20% | % damage ([4]; 0.5 kg/ha): 30% | % damage ([4]; 1.0 kg/ha): 95% | % damage ([4]; 2.0 kg/ha): 95% | % damage ([5]; 0.5 kg/ha): 75% | % damage ([5]; 1.0 kg/ha): 95% | % damage ([5]; 2.0 kg/ha): 100% | % damage ([21]; 0.5 kg/ha): 30% | % damage ([21]; 1.0 kg/ha): 95% | % damage ([21]; 2.0 kg/ha): 95% | % damage ([15]; 0.5 kg/ha): 90% | % damage ([15]; 1.0 kg/ha): 95% | % damage ([15]; 2.0 kg/ha): 95% | % damage ([17]; 0.5 kg/ha): 90% | % damage ([17]; 1.0 kg/ha): 95% | % damage ([17]; 2.0 kg/ha): 95% | % damage ([22]; 1.0 kg/ha): 65% | % damage ([22]; 2.0 kg/ha): 65% | % damage ([7]; 0.5 kg/ha): 0% | % damage ([7]; 1.0 kg/ha): 0% | % damage ([7]; 2.0 kg/ha): 0% | % damage ([23]; 1.0 kg/ha): 70% | % damage ([23]; 2.0 kg/ha): 70% | % damage ([24]; 1.0 kg/ha): 0% | % damage ([24]; 2.0 kg/ha): 20% | % damage ([25]; 1.0 kg/ha): 80% | % damage ([25]; 2.0 kg/ha): 85% | % damage ([26]; 1.0 kg/ha): 60% | % damage ([26]; 2.0 kg/ha): 60% | % damage ([27]; 1.0 kg/ha): 0% | % damage ([27]; 2.0 kg/ha): 40% | % damage ([28]; 1.0 kg/ha): 30% | % damage ([28]; 2.0 kg/ha): 60%

CCc1cccc(C)c1N(Cn1cncn1)C(=O)CCl [Compound 191]
% damage ([8]; 2.0 kg/ha): 30% | % damage ([8]; 4.0 kg/ha): 80% | % damage ([9]; 2.0 kg/ha): 40% | % damage ([9]; 4.0 kg/ha): 85% | % damage ([10]; 2.0 kg/ha): 53% | % damage ([11]; 2.0 kg/ha): 5% | % damage ([11]; 4.0 kg/ha): 20% | % damage ([12]; 2.0 kg/ha): 18% | % damage ([12]; 4.0 kg/ha): 45%
